Test results published in patent publication EP4813977A1, “NOVEL COMPOUND AND USE THEREOF” (Protier Biotech Inc., priority 2023, dated 2025).

Legend:
Cereblon (CRBN) protein = target: T1, Cereblon (CRBN) protein (Homo sapiens, UniProt Q96SW2); experiment: CRBN binding affinity, E3scan (Eurofins) competition binding with qPCR read-out; details: lower % Ctrl = stronger binding, DMSO = 100 % Ctrl, lenalidomide = 0 % Ctrl
T1 construct: purchased Eurofins (E3scan service); host or cells: HEK-293
Procedure: Specifically, CRBN was produced using a HEK-293 cell line and labeled with DNA for qPCR detection. Streptavidin-coated magnetic beads were treated with a biotinylated small-molecule ligand at room temperature for 30 minutes to generate an affinity resin for E3scan analysis. The liganded beads were blocked with excess biotin and washed with a blocking buffer (SeaBlock (Pierce), 1 % BSA, 0.05 % Tween 20, 1 mM DTT) to remove unbound ligands and prevent non-specific binding. […] The test compound was prepared as a 100× stock in 100 % DMSO and diluted directly into the assay solution. All reactions were performed in a polypropylene 384-well plate with a final reaction volume of 0.02 mL. […] The CRBN concentration in the eluate was measured by qPCR. […] A lower '% Ctrl' indicates a stronger binding affinity. […] ((test compound signal−positive control signal)/(negative control signal−positive control signal)) × 100 [formula]

[1] = tested on: human acute monocytic leukemia cell line MV-4-11; experiment: Cell viability assay (Cell Counting Kit-8), MV-4-11; format: cell-based; details: MV4-11, 72 hours, CCK-8, absorbance 450 nm
Procedure: (§1) To evaluate the cytotoxicity of the compounds synthesized in the Preparation Examples against cancer cells, a cell viability assay following treatment with the synthesized compounds was performed using a T-cell leukemia cell line Jurkat (KCLB, Cat# 40152), a human acute monocytic leukemia cell line MV-4-11 (ATCC, Cat# CRL-9591), and a human multiple myeloma cell line MM.1S (ATCC, Cat# CRL-2974).
(§2) As a culture medium for the cell lines, an RPMI medium containing 10 % heat-inactivated FBS and 1 % penicillin/streptomycin (P/S) antibiotics was used. The culture medium was stored refrigerated and warmed in a 37 °C water bath before use. Each cell line was used for the test after a stabilization period of at least 2 weeks after thawing, and cell culture was performed based on information provided by the cell line manufacturer regarding the thawing and subculture conditions.
(§3) The Jurkat, MV-4-11, or MM.1S cell line was seeded in a 96-well plate at a density of 1 × 10^4 cells/well and incubated in a 37 °C CO2 incubator overnight. After incubation, a prepared test compound was applied to each cell line, and the cells were incubated in a 37 °C CO2 incubator for 72 hours. After 72 hours of incubation, a Cell Counting Kit-8 (Dojindo, Cat# CK04-20) reagent was added, and the cells were incubated in a 37 °C CO2 incubator. Then, the absorbance was measured at 450 nm using a SpectraMax M3 Microplate Reader (N=2, duplicate measurement). The evaluation concentrations for evaluating the cytotoxicity of the compounds were 10 points: 100 µM, 20 µM, 4 µM, 0.8 µM, 0.16 µM, 0.032 µM, 0.0064 µM, 0.00128 µM, 0.000256 µM, and 0 µM, and the test was performed at 2 wells/concentration point (n=2). A GI50 was derived using a GraphPad Prism program.

[2] = tested on: T-cell leukemia cell line Jurkat; experiment: Cell viability assay (Cell Counting Kit-8), Jurkat; format: cell-based; details: Homo sapiens, 72 hours, CCK-8, absorbance 450 nm
Procedure: as §1, §2, §3

[3] = tested on: human multiple myeloma cell line MM.1S; experiment: Cell viability assay (Cell Counting Kit-8), MM.1S; format: cell-based; details: MM1.S, 72 hours, CCK-8, absorbance 450 nm
Procedure: as §1, §2, §3

| Compound | CRBN binding affinity (% Ctrl @ 5µM) (Cereblon (CRBN) protein) | GI50 [1] [nM] | GI50 [2] [nM] | GI50 [3] [nM] |
| --- | --- | --- | --- | --- |
| O=C1CCC(N2Cc3cc(C(=O)c4cc5ccccc5[nH]4)ccc3C2=O)C(=O)N1 (stereo not drawn) [Compound 3, 3-(5-(1H-indole-2-carbonyl)-1-oxoisoindolin-2-yl)piperidine-2,6-dione] | A (0 ≤ '% Ctrl' < 0.1) | ≤ 100 | ≤ 100 | ≤ 100 |
| O=C1CCC(N2Cc3cc(C(=O)c4c[nH]c5ccccc45)ccc3C2=O)C(=O)N1 (stereo not drawn) [Compound 4, 3-(5-(1H-indole-3-carbonyl)-1-oxoisoindolin-2-yl)piperidine-2.6-dione] | B (0.1 ≤ '% Ctrl' < 1) | – | 100 to 1000 | ≤ 100 |
| O=C1CCC(N2Cc3cc(C(=O)c4cc5cc(F)ccc5[nH]4)ccc3C2=O)C(=O)N1 (stereo not drawn) [Compound 9, 3-(5-(5-fluoro-1H-indole-2-carbonyl)-1-oxoisoindolin-2-yl)piperidine-2,6-dione] | – | – | ≤ 100 | ≤ 100 |
| O=C1CCC(N2Cc3cc(C(=O)c4ccc(Nc5ccccc5)cc4)ccc3C2=O)C(=O)N1 (stereo not drawn) [Compound 15, 3-(1-oxo-5-(4-(phenylamino)benzoyl)isoindolin-2-yl)piperidine-2,6-dione] | A (0 ≤ '% Ctrl' < 0.1) | ≤ 100 | 100 to 1000 | ≤ 100 |
| O=C1CCC(N2Cc3cc(C(=O)c4n[nH]c5ccccc45)ccc3C2=O)C(=O)N1 (stereo not drawn) [Compound 17, 3-(5-(1H-indazole-3-carbonyl)-1-oxoisoindolin-2-yl)piperidine-2,6-dione] | A (0 ≤ '% Ctrl' < 0.1) | ≤ 100 | 100 to 1000 | ≤ 100 |
| O=C1CCC(N2Cc3cc(C(=O)c4c[nH]c5cc(Cl)ccc45)ccc3C2=O)C(=O)N1 (stereo not drawn) [Compound 18, 3-(5-(6-chloro-1H-indole-3-carbonyl)-1-oxoisoindolin-2-yl)piperidine-2,6-dione] | – | ≤ 100 | 100 to 1000 | ≤ 100 |
| O=C1CCC(N2Cc3cc(C(=O)c4cc5ccc(F)cc5[nH]4)ccc3C2=O)C(=O)N1 (stereo not drawn) [Compound 19, 3-(5-(6-fluoro-1H-indole-2-carbonyl)-1-oxoisoindolin-2-yl)piperidine-2,6-dione] | – | – | ≤ 100 | ≤ 100 |
| O=C1CCC(N2Cc3cc(C(=O)c4cc5ccc(Cl)cc5[nH]4)ccc3C2=O)C(=O)N1 (stereo not drawn) [Compound 20, 3-(5-(6-chloro-1H-indole-2-carbonyl)-1-oxoisoindolin-2-yl)piperidine-2,6-dione] | – | – | ≤ 100 | ≤ 100 |
| O=C1CCC(N2Cc3cc(C(=O)c4ccc5cn[nH]c5c4)ccc3C2=O)C(=O)N1 (stereo not drawn) [Compound 21, 3-(5-(1H-indazole-6-carbonyl)-1-oxoisoindolin-2-yl)piperidine-2,6-dione] | A (0 ≤ '% Ctrl' < 0.1) | > 10000 | 100 to 1000 | 1000 to 10000 |
| CNc1ccc2cc(C(=O)c3ccc4c(c3)CN(C3CCC(=O)NC3=O)C4=O)[nH]c2c1 (stereo not drawn) [Compound 22, 3-(5-(6-(methylamino)-1H-indole-2-carbonyl)-1-oxoisoindolin-2-yl)piperidine-2,6-dione] | A (0 ≤ '% Ctrl' < 0.1) | ≤ 100 | ≤ 100 | ≤ 100 |
| O=C1CCC(N2Cc3cc(C(=O)c4cc(-c5ccccc5)c[nH]4)ccc3C2=O)C(=O)N1 (stereo not drawn) [Compound 27, 3-(1-oxo-5-(4-phenyl-1H-pyrrole-2-carbonyl)isoindolin-2-yl)piperidine-2,6-dione] | A (0 ≤ '% Ctrl' < 0.1) | – | ≤ 100 | ≤ 100 |
| O=C1CCC(N2Cc3cc(C(=O)N4Cc5cccc6cccc4c56)ccc3C2=O)C(=O)N1 (stereo not drawn) [Compound 31, 3-(5-(1,2-dihydrobenxo[cd]indole-1-carbonyl)-1-oxoisoindolin-2-yl)piperidine-2,6-dione] | A (0 ≤ '% Ctrl' < 0.1) | – | 100 to 1000 | ≤ 100 |
| O=C1CCC(N2Cc3cc(C(=O)c4ccc(-c5ccccc5)cc4)ccc3C2=O)C(=O)N1 (stereo not drawn) [Compound 33, 3-(5-([1,1'-biphenyl]-4-carbonyl)-1-oxoisoindolin-2-yl)piperidine-2,6-dione] | – | – | ≤ 100 | ≤ 100 |
| O=C1CCC(N2Cc3cc(C(=O)c4cc5ccccc5o4)ccc3C2=O)C(=O)N1 (stereo not drawn) [Compound 34, 3-(5-(benzofuran-2-carbonyl)-1-oxoisoindolin-2-yl)piperidine-2,6-dione] | A (0 ≤ '% Ctrl' < 0.1) | – | ≤ 100 | ≤ 100 |
| O=C1CCC(N2Cc3cc(C(=O)c4cn(-c5ccccc5)c5ccccc45)ccc3C2=O)C(=O)N1 (stereo not drawn) [Compound 35, 3-(1-oxo-5-(1-phenyl-1H-indole-3-carbonyl)isoindolin-2-yl)piperidine-2,6-dione] | A (0 ≤ '% Ctrl' < 0.1) | – | ≤ 100 | ≤ 100 |
| O=C1CCC(N2Cc3cc(C(=O)N4Cc5ccccc5C4)ccc3C2=O)C(=O)N1 (stereo not drawn) [Compound 36, 3-(5-(isoindoline-2-carbonyl)-1-oxoisoindolin-2-yl)piperidine-2,6-dione] | A (0 ≤ '% Ctrl' < 0.1) | – | ≤ 100 | – |
| O=C1CCC(N2Cc3cc(C(=O)c4coc5ccccc45)ccc3C2=O)C(=O)N1 (stereo not drawn) [Compound 37, 3-(5-(benzofuran-3-carbonyl)-1-oxoisoindolin-2-yl)piperidine-2,6-dione] | C (1 ≤ % Ctrl' < 10) | – | 100 to 1000 | ≤ 100 |
| O=C1CCC(N2Cc3cc(C(=O)c4ccc5c(c4)OCO5)ccc3C2=O)C(=O)N1 (stereo not drawn) [Compound 42, 3-(5-(benzo[d][1,3]dioxole-5-carbonyl)-1-oxoisoindolin-2-yl)piperidine-2,6-dione] | – | – | ≤ 100 | ≤ 100 |
| O=C1CCC(N2Cc3cc(C(=O)c4ccc5ccccc5c4)ccc3C2=O)C(=O)N1 (stereo not drawn) [Compound 44, 3-(5-(2-naphthoyl)-1-oxoisoindolin-2-yl)piperidine-2,6-dione] | – | – | ≤ 100 | > 10000 |
| CN(C)c1ccc(C(=O)c2ccc3c(c2)CN(C2CCC(=O)NC2=O)C3=O)cc1 (stereo not drawn) [Compound 46, 3-(5-(4-(dimethylamino)benzoyl)-1-oxoisoindolin-2-yl)piperidine-2,6-dione] | – | – | ≤ 100 | ≤ 100 |
| O=C1CCC(N2Cc3cc(C(=O)c4ccc(Br)cc4)ccc3C2=O)C(=O)N1 (stereo not drawn) [Compound 49, 3-(5-(4-bromobenzoyl)-1-oxeisoindolin-2-yl)piperidine-2,6-dione] | – | – | ≤ 100 | 1000 to 10000 |
| O=C1CCC(N2Cc3cc(C(=O)c4ccc(O)cc4)ccc3C2=O)C(=O)N1 (stereo not drawn) [Compound 52, 3-(5-(4-hydroxybenzoyl)-1-oxoisoindolin-2-yl)piperidine-2,6-dione] | – | – | 100 to 1000 | ≤ 100 |
| O=C1CCC(N2Cc3cc(C(=O)c4ccc(C5CCCCC5)cc4)ccc3C2=O)C(=O)N1 (stereo not drawn) [Compound 55, 3-(5-(4-cyclohexylbenzoyl)-1-oxoisoindolin-2-yl)piperidine-2,6-dione] | – | – | ≤ 100 | ≤ 100 |
| Cn1c(C(=O)c2ccc3c(c2)CN(C2CCC(=O)NC2=O)C3=O)cc2ccccc21 (stereo not drawn) [Compound 59, 3-(5-(1-methyl-1H-indole-2-carbonyl)-1-oxoisoindolin-2-yl)piperidine-2,6-dione] | – | – | 100 to 1000 | ≤ 100 |
| CC(C)(C)c1ccc(C(=O)c2ccc3c(c2)CN(C2CCC(=O)NC2=O)C3=O)cc1 (stereo not drawn) [Compound 63, 3-(5-(4-(tert-butyl)benzoyl)-1-oxoisoindolin-2-yl)piperidine-2,6-dione] | – | – | ≤ 100 | ≤ 100 |
| O=C1CCC(N2Cc3cc(C(=O)c4ccc5ccccc5n4)ccc3C2=O)C(=O)N1 (stereo not drawn) [Compound 70, 3-(1-oxo-5-(quinoline-2-carbonyl)isoindolin-2-yl)piperidine-2,6-dione] | – | – | 1000 to 10000 | > 10000 |
